According to patent US8614215B2, “Quinoxaline inhibitors of phosphoinositide-3-kinases (PI3Ks)” (Merck Serono SA, priority 2007, dated 2013):

Test system: Human recombinant GST-PI3K
Assay: PI3K induced-lipid phosphorylation, neomycin-SPA scintillation proximity assay
Format: biochemical
Conditions: for IC50: Human recombinant GST-PI3K, SPA
From the text: The efficacy of compounds of the invention in inhibiting the PI3K induced-lipid phosphorylation may be tested in the following binding assay. The assay combines the scintillation proximity assay technology (SPA, Amersham) with the capacity of neomycin (a polycationic antibiotic) to bind phospholipids with high affinity and specificity. The Scintillation Proximity Assay is based on the properties of weakly emitting isotopes (such as ^3H, ^125I, ^33P). Coating SPA beads with neomycin allows the detection of phosphorylated lipid substrates after incubation with recombinant PI3K and radioactive ATP in the same well, by capturing the radioactive phospholipids to the SPA beads through their specific binding to neomycin.
To a 96 wells MTP containing 10 μL of the test compound of Formula (I) (solubilized in 10% DMSO; […]), the following assay components are added: 1) 10 μL of lipid micelles 2) 20 μL of Kinase buffer ([^33P]γATP162 μM/300 nCi, MgCl2 2.5 mM, DTT 2.5 mM, Na3VO4 25 uM in Hepes 40 mM, pH 7.4) and 3) 10 μL (100 ng) of Human recombinant GST-PI3K (in Hepes 40 mM, pH 7.4, ethylenglycol 4%). After incubation at room temperature for 120 minutes, with gentle agitation, the reaction is stopped by addition of 200 μL of a solution containing 250 μg of neomycin-coated PVT SPA beads, ATP 60 mM and EDTA 6.2 mM in PBS. The assay is further incubated at room temperature for 60 minutes with gentle agitation to allow binding of phospholipids to neomycin-SPA beads. After precipitation of the neomycin-coated PVT SPA beads for 5 minutes at 1500×g, radioactive PtdIns(3)P is quantified by scintillation counting in a Wallac MicroBeta™ plate counter.
The values indicated in Table I below refer to the IC50 (μM) with respect to PI3K, i.e. the amount necessary to achieve 50% inhibition of said target. Said values show a considerable inhibitory potency of quinoxaline compounds with regard to PI3K.

Compound	IC50	PI3K inhibition at single concentration (at 20 μM)
COC(=O)c1ccc(OC)cc1Nc1nc2ccccc2nc1NS(C)(=O)=O [Example 3, methyl 4-methoxy-2-({3-[(methylsulfonyl)amino]quinoxalin-2-yl}amino)benzoate]	1650 nM	
COc1cc(Nc2nc3ccccc3nc2NS(=O)(=O)c2cccnc2)cc(C(=O)N2CCN(C)CC2)c1 [Example 4, N-[3-({3-methoxy-5-[(4-methylpiperazin-1-yl)carbonyl]phenyl}amino)quinoxalin-2-yl]pyridine-3-sulfonamide]	3340 nM	
COc1cc(Nc2nc3ccccc3nc2NS(=O)(=O)c2cccnc2)cc(C(=O)N2CCOCC2)c1 [Example 5, N-(3-{[3-methoxy-5-(morpholin-4-ylcarbonyl)phenyl]amino}quinoxalin-2-yl)pyridine-3-sulfonamide]	3100 nM	
COc1cc(Nc2nc3ccccc3nc2NS(C)(=O)=O)cc(C(=O)N2CCOCC2)c1 [Example 6, N-(3-{[3-methoxy-5-(morpholin-4-ylcarbonyl)phenyl]amino}quinoxalin-2-yl)methanesulfonamide]	5620 nM	
COc1ccc(CC2CCOCC2)c(Nc2nc3ccccc3nc2NS(=O)(=O)c2ccc(F)cc2)c1 [Example 10, 4-fluoro-N-(3-{[5-methoxy-2-(tetrahydro-2H-pyran-4-ylmethyl)phenyl]amino}quinoxalin-2-yl)benzenesulfonamide]	150 nM	
COc1ccc(CC2CC(C)(C)N(C)C(C)(C)C2)c(Nc2nc3ccccc3nc2NS(=O)(=O)c2cn(C)cn2)c1 [Example 14, N-[3-({5-methoxy-2-[(1,2,2,6,6-pentamethylpiperidin-4-yl)methyl]phenyl}amino)quinoxalin-2-yl]-1-methyl-1H-imidazole-4-sulfonamide]	420 nM	
COc1ccc(CC2C[C@H]3CC[C@@H](C2)N3C)c(Nc2nc3ccccc3nc2NS(=O)(=O)c2cn(C)cn2)c1 (stereo partly drawn) [Example 15, N-{3-[(5-methoxy-2-{[(1R,5S)-8-methyl-8-azabicyclo[3.2.1]oct-3-yl]methyl}phenyl)amino]quinoxalin-2-yl}-1-methyl-1H-imidazole-4-sulfonamide]	110 nM	
COc1ccc(CC2CCN(C(C)=O)CC2)c(Nc2nc3ccccc3nc2NS(C)(=O)=O)c1 [Example 18]	170 nM	
COc1ccc(CC2CCCCC2)c(Nc2nc3ccccc3nc2NS(=O)(=O)c2cccnc2)c1 [Example 19, N-(3-{[2-(cyclohexylmethyl)-5-methoxyphenyl]amino}quinoxalin-2-yl)pyridine-3-sulfonamide]	490 nM	
COc1ccc(CC2CCCCC2)c(Nc2nc3ccccc3nc2NS(=O)(=O)c2cn(C)cn2)c1 [Example 20, N-(3-{[2-(cyclohexylmethyl)-5-methoxyphenyl]amino}quinoxalin-2-yl)-1-methyl-1H-imidazole-4-sulfonamide]	450 nM	
COc1ccc(CC2CCCCC2)c(Nc2nc3ccccc3nc2NS(C)(=O)=O)c1 [Example 21, N-(3-{[2-(cyclohexylmethyl)-5-methoxyphenyl]amino}quinoxalin-2-yl)methanesulfonamide]		68% at 20 μM
COc1ccc(CC2CCCC2)c(Nc2nc3ccccc3nc2NS(=O)(=O)c2cn(C)cn2)c1 [Example 24, N-(3-{[2-(cyclopentylmethyl)-5-methoxyphenyl]amino}quinoxalin-2-yl)-1-methyl-1H-imidazole-4-sulfonamide]	180 nM	
COc1ccc(C(CO)CO)c(Nc2nc3ccccc3nc2NS(=O)(=O)c2cn(C)cn2)c1 [Example 29, N-[3-({2-[2-Hydroxy-1-(hydroxymethyl)ethyl]-5-methoxyphenyl}amino)quinoxalin-2-yl]-1-methyl-1H-imidazole-4-sulfonamide]	550 nM	
COc1ccc(C(C)C)c(Nc2nc3ccccc3nc2NS(=O)(=O)c2cn(C)cn2)c1 [Example 30, N-{3-[(2-Isopropyl-5-methoxyphenyl)amino]quinoxalin-2-yl}-1-methyl-1H-imidazole-4-sulfonamide]	200 nM	
COc1ccc(CCO)c(Nc2nc3ccccc3nc2NS(=O)(=O)c2ccc(C(=O)N(C)C)cc2)c1 [Example 32, 4-{[(3-{[2-(2-Hydroxyethyl)-5-methoxyphenyl]amino}quinoxalin-2-yl)amino]sulfonyl}-N,N-dimethylbenzamide]	250 nM	
COc1ccc(CCCO)c(Nc2nc3ccccc3nc2NS(=O)(=O)c2c(C)noc2C)c1 [Example 42, N-(3-{[2-(3-Hydroxpropyl)-5-methoxyphenyl]amino}quinoxalin-2-yl)-3,5-dimethylisoxazole-4-sulfonamide]	130 nM	
COc1ccc(CCO)c(Nc2nc3ccccc3nc2NS(=O)(=O)c2c(C)noc2C)c1 [Example 43]	286 nM	

The next lines start with results.

IC50	Compound	PI3K inhibition at single concentration (at 20 μM)
45 nM	COc1ccc(CC2CCN(C)CC2)c(Nc2nc3ccccc3nc2NS(=O)(=O)c2cccnc2)c1 [Example 12, N-[3-({5-methoxy-2-[(1-methylpiperidin-4-yl)methyl]phenyl}amino)quinoxalin-2-yl]pyridine-3-sulfonamide]	
18 nM	COc1ccc(CC2CCC(O)CC2)c(Nc2nc3ccccc3nc2NS(=O)(=O)c2cn(C)cn2)c1 (stereo not drawn) [Example 22, N-[3-({2-[(4-hydroxycyclohexyl)methyl]-5-methoxyphenyl}amino)quinoxalin-2-yl]-1-methyl-1H-imidazole-4-sulfonamide]	
100 nM	COc1ccc(CC2CCSCC2)c(Nc2nc3ccccc3nc2NS(=O)(=O)c2cn(C)cn2)c1 [Example 25, N-(3-{[5-methoxy-2-(tetrahydro-2H-thiopyran-4-ylmethyl)phenyl]amino}quinoxalin-2-yl)-1-methyl-1H-imidazole-4-sulfonamide]	
30 nM	COc1ccc(CC2CCS(=O)(=O)CC2)c(Nc2nc3ccccc3nc2NS(=O)(=O)c2cn(C)cn2)c1 [Example 26, N-[3-({2-[(1,1-dioxidotetrahydro-2H-thiopyran-4-yl)methyl]-5-methoxyphenyl}amino)auinoxalin-2-yl]-1-methyl-1H-imidazole-4-sulfonamide]	
40 nM	COc1ccc(CCO)c(Nc2nc3ccccc3nc2NS(=O)(=O)c2cccnc2)c1 [Example 27, N-(3-{[2-(2-hydroxyethyl)-5-methoxyphenyl]amino}quinoxalin-2-yl)pyridine-3-sulfonamide]	
21 nM	COc1ccc(CCCO)c(Nc2nc3ccccc3nc2NS(=O)(=O)c2cn(C)cn2)c1 [Example 28, N-(3-{[2-(3-Hydroxypropyl)-5-methoxyphenyl]amino}quinoxalin-2-yl)-1-methyl-1H-imidazole-4-sulfonamide]	
11 nM	COc1ccc(CCCN(C)C)c(Nc2nc3ccccc3nc2NS(=O)(=O)c2cn(C)cn2)c1 [Example 31, N-[3-({2-[3-(Dimethylamino)propyl]-5-methoxyphenyl}amino)quinoxalin-2-yl]-1-methyl-1H-imidazole-4-sulfonamide]	
106 nM	COc1ccc(CCO)c(Nc2nc3ccccc3nc2NS(=O)(=O)c2ccc(C)[n+]([O-])c2)c1 [Example 33, N-(3-{[2-(2-Hydroxyethyl)-5-methoxyphenyl]amino}quinoxalin-2-yl)-6-methylpyridine-3-sulfonamide 1-oxide]	
22 nM	COc1ccc(CCO)c(Nc2nc3ccccc3nc2NS(=O)(=O)c2ccc(C#N)cc2)c1 [Example 34]	
48 nM	COc1ccc(CCO)c(Nc2nc3ccccc3nc2NS(=O)(=O)c2cn(C)cn2)c1 [Example 35, N-(3-{[2-(2-Hydroxyethyl)-5-methoxyphenyl]amino}quinoxalin-2-yl)-1-methyl-1H-imidazole-4-sulfonamide]	
23 nM	COc1ccc(CCO)c(Nc2nc3ccccc3nc2NS(=O)(=O)c2ccc(F)cc2)c1 [Example 36, 4-Fluoro-N-(3-{[2-(2-hydroxyethyl)-5-methoxyphenyl]amino}quinoxalin-2-yl)benzenesulfonamide]	
95 nM	COc1ccc(CCO)c(Nc2nc3ccccc3nc2NS(C)(=O)=O)c1 [Example 37, N-(3-{[2-(2-Hydroxyethyl)-5-methoxyphenyl]amino}quinoxalin-2-yl)methanesulfonamide]	
60 nM	CCS(=O)(=O)Nc1nc2ccccc2nc1Nc1cc(OC)ccc1CCO [Example 38, N-(3-{[2-(2-Hydroxyethyl)-5-methoxyphenyl]amino}quinoxalin-2-yl)ethanesulfonamide]	
44 nM	CCCS(=O)(=O)Nc1nc2ccccc2nc1Nc1cc(OC)ccc1CCO [Example 39, N-(3-{[2-(2-Hydroxyethyl)-5-methoxyphenyl]amino}quinoxalin-2-yl)propane-1-sulfonamide]	
84 nM	COc1ccc(CCS(C)(=O)=O)c(Nc2nc3ccccc3nc2NS(=O)(=O)c2cn(C)cn2)c1 [Example 40, N-[3-({5-Methoxy-2-[2-(methylsulfonyl)ethyl]phenyl}amino)quinoxalin-2-yl]-1-methyl-1H-imidazole-4-sulfonamide]	
70 nM	COC(=O)CCc1ccc(S(=O)(=O)Nc2nc3ccccc3nc2Nc2cc(OC)ccc2CCO)cc1 [Example 41, Methyl 3-(4-{[(3-{[2-(2-hydroxyethyl)-5-methoxyphenyl]amino}quinoxalin-2-yl)amino]sulfonyl}phenyl)propanoate]	
